Assay results taken from ChEMBL document CHEMBL1139799, “Identification of novel chemical inhibitors for ubiquitin C-terminal hydrolase-L3 by virtual screening” (Bioorg Med Chem, 2007).
Calls of active or inactive are those of the source. The rule behind the calls is not given here.

Assays:
[1] = molecular target: T1, Ubiquitin carboxyl-terminal hydrolase isozyme L3 (Homo sapiens) (UniProt P15374); assay: Inhibition of human UCH-L3 hydrolysis activity at 331 uM
T1 sequence (whole entry): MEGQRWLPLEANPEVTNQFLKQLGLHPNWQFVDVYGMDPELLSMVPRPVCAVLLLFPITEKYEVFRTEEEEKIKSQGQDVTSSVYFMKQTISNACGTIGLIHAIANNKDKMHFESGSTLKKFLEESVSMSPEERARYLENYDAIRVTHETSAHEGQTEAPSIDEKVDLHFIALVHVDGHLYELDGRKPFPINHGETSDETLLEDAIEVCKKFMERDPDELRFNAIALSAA

[2] = molecular target: T1, Ubiquitin carboxyl-terminal hydrolase isozyme L3 (Homo sapiens); assay: Inhibition of human UCH-L3 hydrolysis activity at 375 uM relative to control; parameters: scale not given: the % may be the effect or the level left
[3] = molecular target: T2, Ubiquitin carboxyl-terminal hydrolase isozyme L3 (Homo sapiens, UniProt P15374); assay: Inhibition of human UCH-L3 hydrolysis activity
T2 sequence (P15374 whole entry): T1 sequence (whole entry)

[4] = molecular target: T1, Ubiquitin carboxyl-terminal hydrolase isozyme L3 (Homo sapiens); assay: Inhibition of human UCH-L3 hydrolysis activity at 387 uM
[5] = molecular target: T1, Ubiquitin carboxyl-terminal hydrolase isozyme L3 (Homo sapiens); assay: Inhibition of human UCH-L3 hydrolysis activity at 350 uM relative to control; parameters: scale not given: the % may be the effect or the level left
[6] = molecular target: T1, Ubiquitin carboxyl-terminal hydrolase isozyme L3 (Homo sapiens); assay: Inhibition of human UCH-L3 hydrolysis activity at 386 uM
[7] = molecular target: T1, Ubiquitin carboxyl-terminal hydrolase isozyme L3 (Homo sapiens); assay: Inhibition of human UCH-L3 hydrolysis activity at 334 uM
[8] = molecular target: T1, Ubiquitin carboxyl-terminal hydrolase isozyme L3 (Homo sapiens); assay: Inhibition of human UCH-L3 hydrolysis activity at 380 uM relative to control; parameters: scale not given: the % may be the effect or the level left

`CCS(=O)(=O)Nc1cccc(C2=NN(C(C)=O)C(c3cccs3)C2)c1` (stereo not given) was tested, and the Activity [1] was “inactive”.
`COc1ccc(C2C(C(=O)c3cccs3)=C(O)C(=O)N2c2nncs2)cc1` (stereo not given) gave an Activity [2] of 76.5% and an IC50 [3] of 154 µM.
`Nc1nc(CSc2nnc(-c3ccco3)n2-c2ccccc2)cs1` was tested, and the Activity [4] was “inactive”.
Work on `Cc1ccc(C(=O)C2=C(O)C(=O)N(Cc3cccnc3)C2c2ccc(F)cc2)o1` (stereo not given) yielded an IC50 [3] of 123 µM and an Activity [5] of 76.8%.
For `COc1cccc(N(CC(=O)NC2CCCC2)S(=O)(=O)c2ccccc2)c1`, the Activity [6] was “inactive”.
With `COc1ccc(N(CC(=O)NC2CC2)S(=O)(=O)c2ccc(C)cc2)cc1` the Activity [7] was “inactive”.
`Cc1ccc(C(=O)C2=C(O)C(=O)N(Cc3ccccc3)C2c2cccnc2)o1` (stereo not given) gave an IC50 [3] of 103 µM.
Molecule `Cn1c(SCc2nc(-c3cccs3)no2)nnc1-c1c[nH]c2ccccc12` has an Activity [8] of 16.2%.
